Test results: US8058245B2, “Fused heterocycle derivative, medicinal composition containing the same, and medicinal use thereof” (Kissei Pharmaceutical Co., Ltd., priority 2004, dated 2011)

Experiments:
[1] = target: T1, human SGLT1 (Homo sapiens, UniProt P13866); experiment: Assay for inhibitory effects on human SGLT1 activity (uptake of methyl-α-D-glucopyranoside in CS1-5-11D cells); type: cell-based; conditions: CHO-K1 cells stably expressing human SGLT1 (CS1-5-11D); 50% inhibition of uptake of 1 mM 14C-labeled/non-labeled methyl-α-D-glucopyranoside, 37° C., 1 hour
T1 construct: expressed in transfected cells
T1 sequence (P13866 1-664): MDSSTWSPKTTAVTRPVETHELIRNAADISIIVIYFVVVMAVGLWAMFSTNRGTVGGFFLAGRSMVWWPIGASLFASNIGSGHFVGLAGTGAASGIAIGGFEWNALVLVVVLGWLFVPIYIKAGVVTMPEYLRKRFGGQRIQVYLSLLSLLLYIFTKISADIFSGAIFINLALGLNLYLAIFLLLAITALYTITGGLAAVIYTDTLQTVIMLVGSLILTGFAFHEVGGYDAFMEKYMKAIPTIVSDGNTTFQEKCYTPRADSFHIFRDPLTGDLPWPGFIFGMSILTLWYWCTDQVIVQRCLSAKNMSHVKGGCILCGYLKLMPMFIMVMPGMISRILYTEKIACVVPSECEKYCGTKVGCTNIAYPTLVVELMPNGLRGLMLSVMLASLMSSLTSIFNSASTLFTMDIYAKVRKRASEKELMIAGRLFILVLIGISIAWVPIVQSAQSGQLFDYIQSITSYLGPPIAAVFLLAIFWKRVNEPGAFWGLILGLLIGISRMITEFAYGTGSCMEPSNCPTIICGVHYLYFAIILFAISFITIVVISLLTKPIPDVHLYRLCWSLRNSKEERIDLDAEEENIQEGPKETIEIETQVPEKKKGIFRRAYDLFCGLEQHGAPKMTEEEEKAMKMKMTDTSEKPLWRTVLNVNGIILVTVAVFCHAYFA
Method: Test Example 1 Assay for Inhibitory Effects on Human SGLT1 Activity 1) Cloning and Construction of the Vector Expressing Human SGLT1 The cDNA library was prepared for PCR amplification by reverse transcription from total RNA deprived from human small intestine (Ori gene) using oligo-dT as a primer. Using this cDNA library as a template, the DNA fragment coding 1 to 2005 bp of human SGLT1 (ACCESSION: M24847), which was reported by Hediger et al., was amplified by PCR method and inserted into the multi-cloning site of pcDNA3.1 (−) (Invitrogen). The DNA sequence inserted was perfectly matched to the previously reported sequence. 2) Establishment of Cell Line Stably Expressing Human SGLT1 The expression vector of human SGLT1 was digested by Sca I into a linear DNA. The linear DNA was transfected into CHO-K1 cells by means of lipofection (Effectene Transfection Reagent: QIAGEN). Neomycin resistant cell lines were selected by culture in the medium containing G418 (1 mg/mL, LIFE TECHNOLOGIES), and then the activity against the uptake of methyl-α-D-glucopyranoside was measured by the method described below. […] Radio activity was measured by means of micro-scintillation counter TopCount (Packard). One hundred % was set to the difference between the uptake in the control group and the basal uptake, and the uptake of methyl α-D-glucopyranoside at each drug concentration were calculated. […]

[2] = target: T2, human SGLT2 (Homo sapiens, UniProt P31639); experiment: Assay for inhibitory effects on human SGLT2 activity (uptake of methyl-α-D-glucopyranoside in CS2-5E cells); type: cell-based; conditions: CHO-K1 cells stably expressing human SGLT2 (CS2-5E); 50% inhibition of uptake of 1 mM 14C-labeled/non-labeled methyl-α-D-glucopyranoside, 37° C., 1 hour
T2 construct: expressed in transfected cells
T2 sequence (P31639 1-672): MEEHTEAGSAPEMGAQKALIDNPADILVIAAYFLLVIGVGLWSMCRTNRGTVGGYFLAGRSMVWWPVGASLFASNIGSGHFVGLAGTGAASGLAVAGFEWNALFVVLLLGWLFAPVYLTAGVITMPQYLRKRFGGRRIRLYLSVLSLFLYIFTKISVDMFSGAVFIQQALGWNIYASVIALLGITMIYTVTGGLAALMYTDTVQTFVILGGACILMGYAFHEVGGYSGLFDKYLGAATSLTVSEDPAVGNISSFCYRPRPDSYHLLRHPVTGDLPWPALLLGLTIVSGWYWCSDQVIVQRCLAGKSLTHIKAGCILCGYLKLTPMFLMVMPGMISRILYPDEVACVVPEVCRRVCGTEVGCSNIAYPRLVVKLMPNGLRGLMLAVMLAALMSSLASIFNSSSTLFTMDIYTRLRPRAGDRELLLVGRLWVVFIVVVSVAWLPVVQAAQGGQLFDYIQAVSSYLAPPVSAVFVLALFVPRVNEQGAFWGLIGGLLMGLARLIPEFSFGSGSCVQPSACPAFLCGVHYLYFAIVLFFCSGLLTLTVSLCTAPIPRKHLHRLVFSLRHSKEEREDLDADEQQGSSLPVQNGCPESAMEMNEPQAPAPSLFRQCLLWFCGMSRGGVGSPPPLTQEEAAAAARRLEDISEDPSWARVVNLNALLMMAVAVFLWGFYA
Method: Assay for Inhibitory Effects on Human SGLT2 Activity
1) Cloning and Construction of the Vector Expressing Human SGLT2
The cDNA library was prepared for PCR amplification by reverse transcription from total RNA deprived from human kidney (Ori gene) using oligo-dT as a primer. Using this cDNA library as a template, the DNA fragment coding 2 to 2039 bp of human SGLT2 (ACCESSION: M95549, M95299), which was reported by R. G. Wells et al., was amplified by PCR method and inserted into the multi-cloning site of pcDNA3.1 (−) (Invitrogen). The DNA sequence inserted was perfectly matched to the previously reported sequence.
2) Establishment of Cell Line Stably Expressing Human SGLT2
The expression vector of human SGLT2 was digested by Sca I into a linear DNA. The linear DNA was transfected into CHO-K1 cells by means of lipofection (Effectene Transfection Reagent: QIAGEN). Neomycin resistant cell lines were selected by culture in the medium containing G418 (1 mg/mL, LIFE TECHNOLOGIES), and then the activity against the uptake of methyl-α-D-glucopyranoside was measured by the method described below. […] CS2-5E cells were cultured in the presence of G418 at 200 μg/mL. […]
CS2-5E cells were seeded into a 96-well culture plate at a density of 3×10^4 cells/well and cultured for 2 days, and were used in the uptake assay. […] Radio activity was measured by means of micro-scintillation counter TopCount (Packard). […]

IC50 [1] [µM]	IC50 [2] [µM]	SMILES
1.5	–	OC[C@H]1O[C@@H](c2ccc3scc(CCc4ccccc4)c3c2)[C@H](O)[C@@H](O)[C@@H]1O [Example 1, 1-[3-(2-Phenylethyl)benzo[b]thiophen-5-yl]-1-deoxy-β-D-glucopyranose]
–	0.057	COc1cc2occ(CCc3ccccc3)c2cc1[C@@H]1O[C@H](CO)[C@@H](O)[C@H](O)[C@H]1O [Example 2, 1-[6-Methoxy-3-(2-phenylethyl)benzo[b]furan-5-yl]-1-deoxy-β-D-glucopyranose]
–	0.0014	CCc1ccc(Cc2csc3ccc([C@@H]4O[C@H](CO)[C@@H](O)[C@H](O)[C@H]4O)cc23)cc1 [Example 9]
